Assay type in all cases: biochemical
Assay [1] addresses T1, porcine pancreatic α-amylase (E.C. 3.2.1.1) (Sus scrofa, UniProt P00690).
T1 construct: purchased Sigma-Aldrich through Capital Lab Supplies
T1 sequence (P00690 16-511): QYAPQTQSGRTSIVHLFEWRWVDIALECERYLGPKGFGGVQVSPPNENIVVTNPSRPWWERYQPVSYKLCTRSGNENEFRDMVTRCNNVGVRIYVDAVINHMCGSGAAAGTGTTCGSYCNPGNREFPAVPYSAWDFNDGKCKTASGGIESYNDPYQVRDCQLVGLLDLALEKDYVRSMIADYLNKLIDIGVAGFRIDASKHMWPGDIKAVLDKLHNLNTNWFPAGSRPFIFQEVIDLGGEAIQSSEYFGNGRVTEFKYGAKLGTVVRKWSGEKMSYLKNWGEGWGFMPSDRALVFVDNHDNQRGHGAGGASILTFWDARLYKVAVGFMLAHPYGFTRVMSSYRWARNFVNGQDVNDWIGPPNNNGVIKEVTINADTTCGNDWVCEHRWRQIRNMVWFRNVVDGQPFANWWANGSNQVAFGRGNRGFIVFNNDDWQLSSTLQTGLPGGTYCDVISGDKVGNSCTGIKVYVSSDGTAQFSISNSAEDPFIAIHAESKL
The experiment in a line: α-Amylase inhibitory effect (starch/DNS method). Conditions: mean ± SD of triplicate; compounds tested at 30–240 μg/mL; read-out: IC50 α-amylase inhibition. Here is the method:
(§1) Saccharomyces cerevisiae α-glucosidase (E.C. 3.2.1.20), porcine pancreatic α-amylase (E.C. 3.2.1.1), p-nitrophenyl glucopyranoside (pNPG) and p-nitrophenol were obtained from Sigma-Aldrich through Capital Lab Supplies, New Germany, South Africa. Starch, dinitrosalicylic acid (DNS), maltose, absolute ethanol and ethyl acetate were obtained from Merck Chemical Company, Durban, South Africa.
(§2) This solution was pre-incubated at 25 °C for 10 min, after which 250 μL of 1% starch solution in 0.02 M sodium phosphate buffer (pH 6.9) was added at a time interval of 10 s and then further incubated at 25 °C for 10 min. The reaction was terminated after incubation by adding 1 mL of dinitrosalicylic acid (DNS) reagent. The tube was then boiled for 10 min and cooled to room temperature. […] A control was prepared using the same procedure using distilled water instead of the compound.

The target in assay [2] is T1, porcine pancreatic α-amylase (E.C. 3.2.1.1). The experiment in a line: Mechanism of α-amylase inhibition (Lineweaver-Burke kinetics). Conditions: compound 30 μg/mL; for type of inhibition of α-amylase: Lineweaver-Burke plot; for KM, α-amylase inhibition / Ki / Vmax, α-amylase inhibition: starch 0.063–1.0%. How it is done:
as §2
(§3) The isolated compounds were subjected to kinetic experiments to determine the type of inhibition exerted on α-amylase and α-glucosidase. The experiment was conducted according to the protocols mentioned above at a constant concentration of the compounds (30 μg/mL) with a variable concentration of substrate. […] The initial velocity data obtained were used to construct Lineweaver-Burke plots to determine the K M (Michaelis constant) and v max (maximum velocity) of the enzyme as well as the Ki (inhibition binding constant as a measure of affinity of the inhibitor to the enzyme) and the type of inhibition for both enzymes.

Assay [3] concerns the target T2, Saccharomyces cerevisiae α-glucosidase (E.C. 3.2.1.20) (Saccharomyces cerevisiae, UniProt P53341).
T2 construct: purchased Sigma-Aldrich through Capital Lab Supplies
Put plainly: biochemical. The conditions noted are these: for type of inhibition of α-glucosidase: Lineweaver-Burke plot. Here is the method: (§4) The 5.0 mM p-nitrophenyl glucopyranoside (pNPG) substrate solution was prepared in 20 mM phosphate buffer, pH 6.9. […] Thereafter, 250 μL of 5.0 mM pNPG was dissolved in 20 mM phosphate buffer (pH 6.9) as a substrate to start the reaction. The reaction mixture was incubated at 37 °C for 30 min.
as §3

Assay [4] addresses T2, Saccharomyces cerevisiae α-glucosidase (E.C. 3.2.1.20). The experiment in a line: α-Glucosidase inhibitory effect (pNPG method). Here is the method: as §1, §4
The mark [5] stands for this setting: compound 30 μg/mL, pNPG 0.313–5.0 mM.
Where [6] appears, read: compound 30 μg/mL, pNPG 0.313–5.0 mM, read-out: Ki, α-glucosidase inhibition (converted).
The mark [7] stands for this setting: mean ± SD of triplicate, compounds tested at 30–240 μg/mL, read-out: IC50 α-glucosidase inhibition.

Each structure is given as a SMILES string. Like-named read-outs stand apart in the source and are kept apart here.

Four compounds from publication PMC6130490, “Inhibition of key enzymes linked to type 2 diabetes by compounds isolated from Aframomum melegueta fruit” (Pharmaceutical Biology, 2017) can be followed below.

In general, IC50 refers to the concentration needed to halve the response being measured. By Ki is commonly meant the dissociation constant of the complex between target and ligand, obtained from inhibition or displacement.

T2 sequence (P53341 whole entry): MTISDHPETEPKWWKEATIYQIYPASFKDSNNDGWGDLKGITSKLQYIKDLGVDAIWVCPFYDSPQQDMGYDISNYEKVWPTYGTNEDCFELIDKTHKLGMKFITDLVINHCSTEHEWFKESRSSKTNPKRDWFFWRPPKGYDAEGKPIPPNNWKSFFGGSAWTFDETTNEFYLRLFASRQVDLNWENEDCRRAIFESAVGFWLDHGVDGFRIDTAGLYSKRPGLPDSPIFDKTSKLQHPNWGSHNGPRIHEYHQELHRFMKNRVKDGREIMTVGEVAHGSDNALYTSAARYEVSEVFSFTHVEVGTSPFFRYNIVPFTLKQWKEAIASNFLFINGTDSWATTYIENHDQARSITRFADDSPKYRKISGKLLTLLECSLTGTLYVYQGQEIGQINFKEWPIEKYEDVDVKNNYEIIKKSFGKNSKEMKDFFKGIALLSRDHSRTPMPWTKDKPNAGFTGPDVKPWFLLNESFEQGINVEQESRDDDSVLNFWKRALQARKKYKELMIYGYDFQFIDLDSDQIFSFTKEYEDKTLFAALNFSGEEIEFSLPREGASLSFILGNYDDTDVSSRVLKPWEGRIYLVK

Turning to `CCCCC[C@H](O)CC(=O)CCc1ccc(O)c(OC)c1` [6-Gingerol (3), 6-gingerol], the IC50 in assay [1] is 81.8 ± 7.79 µM. Besides, in assay [2], the “type of inhibition of α-amylase” value is reported as “noncompetitive”; the “KM, α-amylase inhibition” value came out at 0.06%; the Ki is 89.9 µM; the “Vmax, α-amylase inhibition” value was 16.73 µmol/min. The compound further had a Ki in assay [3] of 26.6 µM. The “type of inhibition of α-glucosidase” value in assay [3] (compound 30 μg/mL) was “noncompetitive”. Further, the “Vmax, α-glucosidase inhibition” value in assay [3] (setting [5]) came out at 123.10 µmol/min. Also, the concentration for half-maximal inhibition (IC50) in assay [4] is 21.5 ± 0.45 µM.
For `CCCCCCCC(=O)CCc1ccc(O)c(OC)c1` [6-Paradol (1), 6-paradol], the IC50 in assay [1] amounted to 665 ± 11.6 µM. In addition, in assay [2], the “type of inhibition of α-amylase” value was “noncompetitive”; the “KM, α-amylase inhibition” value worked out at 0.06%; the inhibition constant (Ki) was 83.7 µM; the “Vmax, α-amylase inhibition” value was found to be 15.60 µmol/min. The “type of inhibition of α-glucosidase” value in assay [3] (compound 30 μg/mL) is on record as “noncompetitive”. For the same compound, the “Vmax, α-glucosidase inhibition” value in assay [3] (setting [5]) came out at 81.20 µmol/min. Also, the Ki in assay [3] (setting [6]) was 22.4 µM. Further, the IC50 in assay [4] (setting [7]) was determined as 243 ± 6.65 µM.
Consider `CCCCC/C=C/C(=O)CCc1ccc(O)c(OC)c1` [6-Shagaol (2), 6-shogaol], for which, in assay [1], the IC50 worked out at 443.2 ± 1.38 µM. Moreover, in assay [2], the “type of inhibition of α-amylase” value is on record as “mixed”; the “KM, α-amylase inhibition” value came to 0.09%; the Ki was 226 µM; the “Vmax, α-amylase inhibition” value came to 24.10 µmol/min. In assay [3] (setting [5]), the “Vmax, α-glucosidase inhibition” value worked out at 55.70 µmol/min. Moreover, in assay [3] (setting [6]), the Ki was 14.5 µM. Besides, the IC50 in assay [4] (setting [7]) amounted to 326 ± 5.6 µM.
As to `CC1(C)CC[C@]2(C(=O)O)CC[C@]3(C)C(=CC[C@@H]4[C@@]5(C)CC[C@H](O)C(C)(C)[C@@H]5CC[C@]43C)[C@@H]2C1` [Oleanolic acid (4), oleanolic acid], the “Vmax, α-glucosidase inhibition” value in assay [3] (setting [5]) came out at 64.20 µmol/min.
